Source: article PMC6522930, “Design, synthesis and biological activity evaluation of a new class of 2,4-thiazolidinedione compounds as insulin enhancers” (Journal of Enzyme Inhibition and Medicinal Chemistry, 2019)

Tests used:
[1] = test system: HUVEC cells; test: Cell survival experiment (cytotoxicity); type: cell-based; conditions: for Cytotoxic effect (in words): 10^−3–10^−2 mol L^−1; for Cell survival rate: HUVEC cells
Protocol: (§1) (1) Glucose tolerance test: The healthy mice (20 ± 2 g) were selected. After 1 week of acclimation, mice with no body surface damage, good general condition and flexible reaction were selected for the experiment. The test compounds were dissolved with DMSO, and were given a dose volume of 0.2 ml 10 g^−1, and a dose of 10 mg kg^−1, and given by gavage (oral) once a day. […] The mice were given the drug for 10 d, and after the last dose, the mice fasted for 12 h. The next day, blood was collected from the tail vein of the mice before and after the sugar load for 1 h and 2 h, and the blood glucose level of the mice before and after the sugar load was measured by the glucometer. […] The 12 h of fasting after the last administration, blood was taken from the orbital venous plexus (used to measure the blood glucose level after fasting). Each group was immediately given a subcutaneous injection of 0.2 μg kg^−1 of insulin. After 1 h and 2 h of injection, blood was taken again. (3) Cell survival experiment: The HUVEC cells were inoculated on the 96-well plate at the initial concentration of 3 × 10^3 cells/holes, and 100 μl RPMI 1640 medium were added to each hole. At 5% CO2 and 37 °C cell cultivation in 24 h, every pore solution in different concentrations. […] And determine the hole under 460 nm wavelength absorbance value (A).

[2] = test system: healthy mice; test: Oral glucose tolerance test; type: in vivo; conditions: for Blood glucose levels 1 h / Blood glucose levels 2 h / Blood glucose levels 0 h: 10 mg kg^−1 d^−1 oral for 10 d; for Blood glucose levels 1 h: 1 h after sugar load; for Blood glucose levels 2 h: 2 h after sugar load; for Blood glucose levels 0 h: fasted 12 h, before sugar load; for Effect in glucose tolerance test (in words): 10 mg kg^−1 d^−1 oral, 10 d
Protocol: In vivo experiments, glucose tolerance test, insulin tolerance test, cell survival experiment and acute toxicity were used as the test indicators (Tables 2, [3] and [4]). In Table 2, we chose dose 10 mg kg^−1 d^−1 and used oral administration. […] The mice were given the drug for 10 d, blood was collected from the tail vein of the mice before and after the sugar load for 1 h and 2 h, and the blood glucose level of the mice before and after the sugar load was measured by the glucometer.
as §1

[3] = Acute toxicity test (LD50); type: in vivo; conditions: oral administration; n ≥ 3
[4] = Lipid–water partition coefficient (log p); type: physicochemical
Excerpt: (§2) Drug in vitro experiment was one of the basic contents to evaluate drugs activity, and it was a necessary approach to research drugs. Drugs’ efficacy was often affected by some physical and chemical properties of compounds, such as lipid–water partition coefficient (log p), and dissociation degree (pKa). […] In Table 1, we could find that target compounds were fat-soluble. The fat-soluble compounds were favourable for drugs absorption, and drugs were easy to enter the cells. […] The pKa will affect the absorption and delivery of the drugs, different environmental (acid and alkalinity) medicine may be different, sometimes exists in the form of ions, sometimes exists in the form of molecules. Usually in the form of ion drugs has no effect. Therefore, it was necessary to study the dissociation degree (pKa) of drugs to study the pharmacodynamics. […] After the physical and chemical properties were studied, the biological activity was studied. […] After that, the target compounds 6a, 6e, 6f, 6g and 6i had good biological activity and were preliminarily screened out for further study on PPARγ receptor agonist activity (Figure 5).

[5] = target: T1, PPARγ (Homo sapiens, UniProt P37231); test: In vitro activation of PPARγ (cells containing PPAR, EC50); type: cell-based; conditions: n ≥ 8; 24 h; read-out: EC50 ± SD PPARγ
T1 construct: expressed in transfected cells
T1 sequence (P37231 1-505): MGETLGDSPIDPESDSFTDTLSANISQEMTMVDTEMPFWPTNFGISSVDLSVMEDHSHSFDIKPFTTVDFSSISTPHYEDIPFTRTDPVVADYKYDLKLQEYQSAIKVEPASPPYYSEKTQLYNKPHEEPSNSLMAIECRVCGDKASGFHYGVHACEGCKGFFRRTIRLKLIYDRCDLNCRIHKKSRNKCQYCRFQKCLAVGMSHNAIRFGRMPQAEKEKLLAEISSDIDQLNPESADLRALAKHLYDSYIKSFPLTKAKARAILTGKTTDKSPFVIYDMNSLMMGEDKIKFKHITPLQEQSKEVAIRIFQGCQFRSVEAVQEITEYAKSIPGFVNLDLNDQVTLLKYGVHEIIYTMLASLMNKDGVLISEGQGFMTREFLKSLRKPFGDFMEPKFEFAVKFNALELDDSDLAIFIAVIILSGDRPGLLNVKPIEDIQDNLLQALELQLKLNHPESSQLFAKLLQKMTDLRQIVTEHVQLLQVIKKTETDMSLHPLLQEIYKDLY
Protocol: According to the literature, the cells containing PPAR (α, β and γ) were obtained and transfected into 96-well plates the day before for cells culture. Transfection was performed according to the instructions of human PPAR enzyme-linked immunoassay. […] After 24 h, the drugs were added, and 20 μl of MTT was added to each well for another 6 h, and the cell liquid was collected by removing the culture medium, and 150 μl of DMSO was added to each hole. And the absorbance value (A) of each hole was measured under the wavelength of 460 nm.

[6] = test system: healthy mice; test: Insulin tolerance test (blood glucose under insulin load); type: in vivo; conditions: for Effect in insulin tolerance test (in words): 10 mg kg^−1 d^−1; for Blood glucose levels 1 h / Blood glucose levels 2 h / Blood glucose levels 0 h: 10 mg kg^−1 d^−1 for 15 d; for Blood glucose levels 1 h: 1 h after s.c. insulin 0.2 μg kg^−1; for Blood glucose levels 2 h: 2 h after s.c. insulin 0.2 μg kg^−1; for Blood glucose levels 0 h: fasted 12 h, before insulin
Protocol: as §1

[7] = Dissociation degree (pKa); type: physicochemical
Excerpt: as §2

Compound: Cc1ccc(C(=O)NCCOc2ccc(CC3SC(=O)NC3=O)cc2)cc1 (stereo not shown) [Compound 6e, N-(2-(4-((2,4-dioxothiazolidin-5-yl)methyl)phenoxy)ethyl)-4-methylbenzamide]
- Cytotoxic effect (in words) [1]: no obvious cytotoxic effect
- Cell survival rate ([1]; 10^−2 mol l^−1): 94.3 ± 1.02%
- Cell survival rate ([1]; 10^−3 mol l^−1): 99.1 ± 0.08%
- Cell survival rate ([1]; 10^−4 mol l^−1): 100%
- Cell survival rate ([1]; 10^−5 mol l^−1): 100%
- Cell survival rate ([1]; 10^−6 mol l^−1): 100%
- Blood glucose levels 1 h [2]: 6.003 ± 1.876 mmol/L
- Blood glucose levels 2 h [2]: 2.953 ± 0.876 mmol/L
- Blood glucose levels 0 h [2]: 3.312 ± 0.301 mmol/L
- Effect in glucose tolerance test (in words) [2]: good resistance activation to glucose
- LD50 ± SD [3]: 2451.2 ± 1.24 mg/kg
- logP [4]: 3.26
- EC50 [5]: 30 ± 10 nM
- Effect in insulin tolerance test (in words) [6]: good resistance activation to insulin
- Blood glucose levels 1 h [6]: 1.762 ± 0.453 mmol/L
- Blood glucose levels 2 h [6]: 2.463 ± 1.211 mmol/L
- Blood glucose levels 0 h [6]: 5.411 ± 1.002 mmol/L
- pKa [7]: 9.77

Compound: Cc1ccc(C(=O)NCCOc2ccc(CC3SC(=O)NC3=O)nc2)cc1 (stereo not shown) [Compound 6f, N-(2-((6-((2,4-dioxothiazolidin-5-yl)methyl)pyridin-3-yl)oxy)ethyl)-4-methylbenzamide]
- Cytotoxic effect (in words) [1]: no obvious cytotoxic effect
- Cell survival rate ([1]; 10^−2 mol l^−1): 89.6 ± 1.34%
- Cell survival rate ([1]; 10^−3 mol l^−1): 98.3 ± 0.45%
- Cell survival rate ([1]; 10^−4 mol l^−1): 99.2 ± 0.31%
- Cell survival rate ([1]; 10^−5 mol l^−1): 99.8 ± 0.09%
- Cell survival rate ([1]; 10^−6 mol l^−1): 100%
- Blood glucose levels 1 h [2]: 6.651 ± 2.413 mmol/L
- Blood glucose levels 2 h [2]: 4.121 ± 1.922 mmol/L
- Blood glucose levels 0 h [2]: 3.216 ± 0.315 mmol/L
- Effect in glucose tolerance test (in words) [2]: good resistance activation to glucose
- LD50 ± SD [3]: 2013.6 ± 1.43 mg/kg
- logP [4]: 2.56
- EC50 [5]: 100 ± 100 nM
- Effect in insulin tolerance test (in words) [6]: good resistance activation to insulin
- Blood glucose levels 1 h [6]: 1.903 ± 0.611 mmol/L
- Blood glucose levels 2 h [6]: 2.602 ± 1.143 mmol/L
- Blood glucose levels 0 h [6]: 5.714 ± 1.465 mmol/L
- pKa [7]: 9.65

Compound: Cc1ccc(C(=O)NCCOc2ccc(CC3SC(=O)NC3=O)cc2)nc1 (stereo not shown) [Compound 6g, N-(2-(4-((2,4-dioxothiazolidin-5-yl)methyl)phenoxy)ethyl)-5-methylpicolinamide]
- Cytotoxic effect (in words) [1]: no obvious cytotoxic effect
- Cell survival rate ([1]; 10^−2 mol l^−1): 90.5 ± 1.54%
- Cell survival rate ([1]; 10^−3 mol l^−1): 98.6 ± 0.44%
- Cell survival rate ([1]; 10^−4 mol l^−1): 99.8 ± 0.09%
- Cell survival rate ([1]; 10^−5 mol l^−1): 100%
- Cell survival rate ([1]; 10^−6 mol l^−1): 100%
- Blood glucose levels 1 h [2]: 6.445 ± 2.220 mmol/L
- Blood glucose levels 2 h [2]: 3.677 ± 1.730 mmol/L
- Blood glucose levels 0 h [2]: 3.112 ± 0.279 mmol/L
- Effect in glucose tolerance test (in words) [2]: good resistance activation to glucose
- LD50 ± SD [3]: 2138.8 ± 1.36 mg/kg
- logP [4]: 2.83
- EC50 [5]: 80 ± 30 nM
- Effect in insulin tolerance test (in words) [6]: good resistance activation to insulin
- Blood glucose levels 1 h [6]: 1.843 ± 0.544 mmol/L
- Blood glucose levels 2 h [6]: 2.566 ± 1.224 mmol/L
- Blood glucose levels 0 h [6]: 5.613 ± 1.246 mmol/L
- pKa [7]: 9.45

Compound: O=C1NC(=O)C(Cc2ccc(OCCNC(=O)c3ccc(O)cc3)cc2)S1 (stereo not shown) [Compound 6i, N-(2-(4-((2,4-dioxothiazolidin-5-yl)methyl)phenoxy)ethyl)-4-hydroxybenzamide]
- Cytotoxic effect (in words) [1]: no obvious cytotoxic effect
- Cell survival rate ([1]; 10^−2 mol l^−1): 92.1 ± 1.43%
- Cell survival rate ([1]; 10^−3 mol l^−1): 98.8 ± 0.29%
- Cell survival rate ([1]; 10^−4 mol l^−1): 99.9 ± 0.02%
- Cell survival rate ([1]; 10^−5 mol l^−1): 100%
- Cell survival rate ([1]; 10^−6 mol l^−1): 100%
- Blood glucose levels 1 h [2]: 6.401 ± 2.112 mmol/L
- Blood glucose levels 2 h [2]: 3.265 ± 1.236 mmol/L
- Blood glucose levels 0 h [2]: 3.218 ± 0.317 mmol/L
- Effect in glucose tolerance test (in words) [2]: good resistance activation to glucose
- LD50 ± SD [3]: 2268.9 ± 1.25 mg/kg
- logP [4]: 2.8
- EC50 [5]: 70 ± 20 nM
- Effect in insulin tolerance test (in words) [6]: good resistance activation to insulin
- Blood glucose levels 1 h [6]: 1.792 ± 0.541 mmol/L
- Blood glucose levels 2 h [6]: 2.501 ± 1.025 mmol/L
- Blood glucose levels 0 h [6]: 5.592 ± 1.134 mmol/L
- pKa [7]: 9.03

Compound: O=C1NC(=O)C(Cc2ccc(OCCNC(=O)c3ccc(O)cn3)cc2)S1 (stereo not shown) [Compound 6k, N-(2-(4-((2,4-dioxothiazolidin-5-yl)methyl)phenoxy)ethyl)-5-hydroxypicolinamide]
- logP [4]: 2.32
- EC50 [5]: 210 ± 110 nM
- pKa [7]: 8.66

Compound: CN(CCOc1ccc(CC2SC(=O)NC2=O)cc1)c1ccccn1 (stereo not shown) [Rosiglitazone, reference compound]
- Blood glucose levels 1 h [2]: 6.351 ± 2.004 mmol/L
- Blood glucose levels 2 h [2]: 3.654 ± 1.232 mmol/L
- Blood glucose levels 0 h [2]: 3.265 ± 0.345 mmol/L
- LD50 ± SD [3]: 2246.1 ± 1.56 mg/kg
